Assay results from US9000045B2, “CETP activity inhibitors” (Japan Tobacco Inc., priority 1997, dated 2015).

Target: T1, CETP (Homo sapiens, UniProt P11597)
T1 sequence (P11597 18-493): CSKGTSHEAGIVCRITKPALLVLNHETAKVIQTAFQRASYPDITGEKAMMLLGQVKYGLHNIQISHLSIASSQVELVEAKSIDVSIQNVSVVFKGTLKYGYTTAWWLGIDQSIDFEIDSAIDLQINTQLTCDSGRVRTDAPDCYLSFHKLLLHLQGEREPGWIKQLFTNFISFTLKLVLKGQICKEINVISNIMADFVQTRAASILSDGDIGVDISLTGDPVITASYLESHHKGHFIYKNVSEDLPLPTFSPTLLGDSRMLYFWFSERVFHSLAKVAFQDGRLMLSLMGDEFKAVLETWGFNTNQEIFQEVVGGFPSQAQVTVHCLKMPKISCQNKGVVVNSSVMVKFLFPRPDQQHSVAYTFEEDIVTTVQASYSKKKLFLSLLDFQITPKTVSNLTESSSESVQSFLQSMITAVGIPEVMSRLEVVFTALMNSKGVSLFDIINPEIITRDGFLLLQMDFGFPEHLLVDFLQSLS
Assay: In vitro CETP activity inhibitory effect in whole plasma
Format: biochemical
Parameters: Plasma containing [^3H]CE-HDL3 (600,000 dpm/ml) was prepared by adding donor lipoprotein obtained in the above (1) to plasma from healthy subjects; from tissue; host or cells: whole plasma of healthy subjects
Conditions: plasma from healthy subjects containing [3H]CE-HDL3, incubated 4 hours at 37° C.; read-out: CETP activity inhibition in whole plasma IC50
Description: The fraction thus obtained was dialyzed against a PBS solution [10 mM Na2HPO4/10 mM NaH2PO4/0.15 M NaCl/1 mM EDTA (pH 7.4)]. Then, tritium-labeled cholesterol (10 nM) (50.3 Ci/mM) was dissolved in 95% ethanol and added gradually to the above HDL3 fraction under stirring. The solution was incubated for 18 hours at 37° C. […] After incubation, KBr was added and specific gravity was adjusted to d=1.21 g/ml. […] A sample solution was prepared using a 1:1 solution of N-methylpyrrolidone and polyethyleneglycol 400 as a solvent. […] Based on the inhibition rate (%) of CETP activity, IC50 value of each sample was calculated.

| Compound | IC50 [µM] |
| --- | --- |
| CC1(C(=O)Nc2ccccc2SC(=O)c2ccccc2)CCCCC1 [Example 32] | 32 |
| CC(C)(C)C(=O)Sc1cc(Cl)c(Cl)cc1NC(=O)C1(CC2CC2)CCCCC1 [Example 70] | 4 |
| CC(C)(C)CC1(C(=O)Nc2cc(Cl)c(Cl)cc2SC(=O)C(C)(C)C)CCCCC1 [Example 66-46] | 35 |
| CC(C)(C)C(=O)Sc1cc(Cl)c(Cl)cc1NC(=O)C1C(C)(C)C1(C)C [Example 66-17] | 18 |
| CC(C)C1(C(=O)Nc2cc(Cl)c(Cl)cc2SC(=O)C(C)(C)C)CCCCC1 [Example 66, S-[4,5-dichloro-2-(1-isopropylcyclohexanecarbonyl-amino)phenyl]2,2-dimethylthiopropionate] | 7 |
| CC(C)CCC1(C(=O)Nc2cc(Cl)c(Cl)cc2SC(=O)C(C)(C)C)CCCC1 [Example 51] | 16 |
| CC(C)(C)C(=O)Nc1ccccc1SSc1ccccc1NC(=O)C(C)(C)C [Example 1, bis-[2-(pivaloylamino)phenyl]disulfide] | 20 |
| CC1(C(=O)Nc2ccccc2SC(=O)Cc2cccc(Cl)c2)CCCCC1 [Example 25-22] | 27 |
| CC(C)CCC1(C(=O)Nc2ccccc2S)CCCC1 [Example 13] | 5 |
| COCC(=O)Sc1cc(Cl)c(Cl)cc1NC(=O)C1(CCC(C)C)CCCCC1 [Example 25-86] | 10 |
| CCC[C@H]1CC[C@H](C(=O)Nc2cc(Cl)c(Cl)cc2SC(=O)C(C)(C)C)CC1 [Example 66-33] | 19 |
| CC(C)(C)C1CCC(C(=O)Nc2ccccc2SSc2ccccc2NC(=O)C2CCC(C(C)(C)C)CC2)CC1 (stereo not drawn) [Example 1-13] | 18 |
| CC1(C(=O)Nc2ccccc2S)CCCCC1 [Example 12] | 17 |
| CC(C)CCC1(C(=O)Nc2cc(Cl)c(Cl)cc2SC(=O)CN(C)C)CCCCC1 [Example 25-80] | 5 |
| CC(C)CCC1(C(=O)Nc2cc(Cl)c(Cl)cc2SC(=O)C2CCN(C)CC2)CCCCC1 [Example 25-78] | 11 |
| O=C(Nc1ccccc1SSc1ccccc1NC(=O)C1CCCCC1)C1CCCCC1 [Example 1-6] | 22 |
| CC(C)(C)C(=O)Nc1ccccc1SC(=O)Sc1ccccc1NC(=O)C(C)(C)C [Example 25-94] | 18 |
| CC(C)(C)C(=O)Sc1cc(Cl)c(Cl)cc1NC(=O)c1ccncc1 [Example 66-21] | 41 |
| CC1(C(=O)Nc2ccccc2SC(=O)Sc2ccccc2)CCCCC1 [Example 55] | 65 |
| CC1(C(=O)Nc2ccccc2SC(=O)Cc2cccs2)CCCCC1 [Example 25-28] | 21 |
| O=C(Nc1ccccc1SSc1ccccc1NC(=O)c1ccccc1)c1ccccc1 [Example 3] | 101 |
| CC(C)(C)C(=O)Nc1ccccc1SC(=O)C1CCCCC1 [Example 25-4] | 32 |
| CC(=O)N[C@@H](Cc1ccccc1)C(=O)Sc1cc(Cl)c(Cl)cc1NC(=O)C1(CCC(C)C)CCCCC1 [Example 25-76] | 36 |

| Compound | IC50 [µM] |
| --- | --- |
| CC(C)(C)C(=O)Sc1cc(Cl)c(Cl)cc1NC(=O)[C@H]1CC[C@H](C2CCCCC2)CC1 [Example 66-31] | 27 |
| CC(C)CC(C(=O)Nc1cc(Cl)c(Cl)cc1SC(=O)C(C)(C)C)C1CCCCC1 (stereo not drawn) [Example 66-40] | 42 |
| CC(C)(C)C(=O)Nc1ccccc1SC(=O)Cc1ccccc1 [Example 31] | 32 |
| CC(C)CCC1(C(=O)Nc2ccccc2SC(=O)C(c2ccccc2)c2ccccc2)CCCCC1 [Example 25-47] | 29 |
| CC(=O)Nc1cccc(CC(=O)Sc2ccccc2NC(=O)C2(C)CCCCC2)c1 [Example 25-31] | 21 |
| CC(=O)N[C@H](Cc1ccccc1)C(=O)Sc1cc(Cl)c(Cl)cc1NC(=O)C1(C)CCCCC1 [Example 66-11] | 22 |
| O=C(Nc1ccccc1SSc1ccccc1NC(=O)C12CC3CC(CC(C3)C1)C2)C12CC3CC(CC(C3)C1)C2 [Example 1-12] | 12 |
| CC(C)(C)C(=O)Nc1ccccc1S [Example 9, N-(2-mercaptophenyl)-2,2-dimethylpropioneamide] | 99 |
| CC(C)CCC1(C(=O)Nc2ccccc2SC(=O)C2CCCCC2)CCCC1 [Example 25-64] | 20 |
| CC(C)(C)C(=O)Nc1ccccc1CC(=O)Sc1ccccc1NC(=O)C1(C)CCCCC1 [Example 25-18] | 19 |
| CC(C)CCC1(C(=O)Nc2cc(Cl)c(Cl)cc2SSc2cc(Cl)c(Cl)cc2NC(=O)C2(CCC(C)C)CCCC2)CCCC1 [Example 82-1] | 5 |
| CCCCC[C@H]1CC[C@H](C(=O)Nc2cc(Cl)c(Cl)cc2SC(=O)C(C)(C)C)CC1 [Example 66-34] | 22 |
| CC(C)(C)C(=O)Nc1cc(C(F)(F)F)ccc1SC(=O)C(C)(C)C [Example 57] | 41 |
| CC1(C(=O)Nc2ccc(F)cc2S)CCCCC1 [Example 19-6] | 18 |
| CC1(C(=O)Nc2ccccc2SC(=O)Cc2ccccc2Cl)CCCCC1 [Example 25-23] | 25 |
| CC1(C(=O)Nc2ccccc2SC(=O)Cc2ccc3ccccc3c2)CCCCC1 [Example 25-25] | 24 |
| CCCC1(C(=O)Nc2cc(Cl)c(Cl)cc2SC(=O)C(C)(C)C)CCCCC1 [Example 66-16] | 8 |
| CC(C)(C)C(=O)Nc1ccccc1SC(=O)CCc1ccccc1 [Example 25-14] | 30 |
| CC1(C(=O)Nc2cc(Cl)c(Cl)cc2SC(=O)[C@@H](N)Cc2ccccc2)CCCCC1 [Example 66-12] | 17 |
| CC(C)(C)C(=O)Nc1ccccc1SC(=O)Cc1ccccc1[N+](=O)[O-] [Example 25-7] | 46 |
| CC(C)CCC1(C(=O)Nc2cc(Cl)c(Cl)cc2SSc2cc(Cl)c(Cl)cc2NC(=O)C2(CCC(C)C)CCCCC2)CCCCC1 [Example 82, bis-[4,5-dichloro-2-(1-isopentylcyclohexane-carbonylamino)phenyl]disulfide] | 7 |
| COC(=O)Sc1cc(Cl)c(Cl)cc1NC(=O)C1(C)CCCCC1 [Example 66-52] | 46 |
| CC(C)CCC1(C(=O)Nc2ccccc2SC(=O)c2cccnc2)CCCC1 [Example 25-60] | 5 |

| Compound | IC50 [µM] |
| --- | --- |
| CC1(C(=O)Nc2ccccc2SC(=O)CC2CCCCC2)CCCCC1 [Example 25-16] | 41 |
| CCCCC1(C(=O)Nc2ccccc2S)CCCCC1 [Example 17] | 8 |
| COc1ccc(S)c(NC(=O)C2(C)CCCCC2)c1 [Example 19, N-(2-mercapto-5-methoxyphenyl)-1-methylcyclohexanecarboxamide] | 179 |
| CCCCC(=O)Nc1ccccc1SSc1ccccc1NC(=O)CCCC [Example 1-2] | 25 |
| CC(C)(C)C(=O)Sc1ccccc1NC(=O)C1(C)CCCCC1 [Example 30] | 72 |
| CC1(C(=O)Nc2ccccc2CC(=O)Sc2ccccc2NC(=O)C2(C)CCCCC2)CCCCC1 [Example 25-19] | 22 |
| CC(C)CCC1(C(=O)Nc2ccccc2SC(=O)[C@@H]2CCC(=O)N2)CCCCC1 [Example 25-54] | 6 |
| CC(C)C(=O)Nc1ccccc1SSc1ccccc1NC(=O)C(C)C [Example 1-1] | 41 |
| CC(C)CCCC1(C(=O)Nc2cc(Cl)c(Cl)cc2SC(=O)C(C)(C)C)CCCCC1 [Example 66-43] | 23 |
| CC(C)CCC1(C(=O)Nc2ccccc2SC(=O)c2cccnc2)CCCCC1 [Example 35] | 4 |
| CC(C)CCC1(C(=O)Nc2ccccc2SC(=O)NC(C)C)CCCCC1 [Example 25-98] | 8 |
| Cc1ccc(S)c(NC(=O)C2(C)CCCCC2)c1 [Example 19-2] | 33 |
| CC(C)CCC1(C(=O)Nc2cc(Cl)c(Cl)cc2SC(=O)Cc2ccccc2)CCCCC1 [Example 25-83] | 18 |
| CC(C)(C)C(=O)Sc1cc(Cl)c(Cl)cc1NC(=O)C1(CC2CCCCC2)CCCCC1 [Example 71] | 4 |
| CC1(C(=O)Nc2cc(F)ccc2S)CCCCC1 [Example 19-1] | 19 |
| CCCC1(C(=O)Nc2ccccc2S)CCCCC1 [Example 16] | 8 |
| CC1(C(=O)Nc2cc(F)c(F)cc2S)CCCCC1 [Example 19-5] | 17 |
| CC(C)(C)C(=O)Sc1cc(Cl)c(Cl)cc1NC(=O)[C@H]1CC[C@H](C(C)(C)C)CC1 [Example 66-27] | 9 |
| CC(=O)N[C@@H](Cc1ccccc1)C(=O)Sc1cc(Cl)c(Cl)cc1NC(=O)C1(C)CCCCC1 [Example 66-10] | 23 |
| COC(=O)Sc1cc(Cl)c(Cl)cc1NC(=O)C1(CCC(C)C)CCCCC1 [Example 25-91] | 22 |
| CC(=O)N[C@@H](Cc1ccc(O)cc1)C(=O)Sc1ccccc1NC(=O)C1(C)CCCCC1 [Example 25-36] | 30 |
| CC(C)CCC1(C(=O)Nc2cc(Cl)c(Cl)cc2SC(=O)c2cccnc2)CCCCC1 [Example 25-77] | 7 |
| CC(C)(C)C(=O)Sc1cc(Cl)c(Cl)cc1NC(=O)C1(C2CC2)CCCCC1 [Example 67] | 9 |
